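Protocol summary: plate cells (96-well), add compound at 5 concentrations, incubate 48 h, interpolate endpoints linearly. GI50 marks 50% less growth.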 The source made the active and inactive calls. Cut-off read from the data, not from the text of the source: active = GI50 up to about 1.1 µM and inactive = higher.
Assays:
Experiment in all cases: DTP human tumour cell line panel, 48 h
SNB-75 = system: SNB-75
UACC-257 = system: UACC-257
MDA-MB-435 = system: MDA-MB-435
MDA-MB-231 = system: MDA-MB-231
IGROV-1 = system: IGROV-1
K562 = system: K562
LOX IMVI = system: LOX IMVI
NCI-H522 = system: NCI-H522
MOLT-4 = system: MOLT-4
RXF 393 = system: RXF 393
SK-MEL-2 = system: SK-MEL-2
SK-MEL-28 = system: SK-MEL-28
OVCAR-8 = system: OVCAR-8
HOP-62 = system: HOP-62
TK-10 = system: TK-10
SF-295 = system: SF-295
HCC 2998 = system: HCC 2998
OVCAR-5 = system: OVCAR-5
PC-3 = system: PC-3
CCRF-CEM = system: CCRF-CEM

SMILES	GI50 (SNB-75)	GI50 (UACC-257)	GI50 (MDA-MB-435)	GI50 (MDA-MB-231)	GI50 (IGROV-1)	GI50 (K562)	GI50 (LOX IMVI)	GI50 (NCI-H522)	GI50 (MOLT-4)	GI50 (RXF 393)	GI50 (SK-MEL-2)	GI50 (SK-MEL-28)	GI50 (OVCAR-8)	GI50 (HOP-62)	GI50 (TK-10)	GI50 (SF-295)	GI50 (HCC 2998)	GI50 (OVCAR-5)	GI50 (PC-3)	GI50 (CCRF-CEM)
CC(C)=CCC[C@@H](C)/C=C/C=C(\C)C(=O)CC[C@@H]1CC[N@+]2(C)CCCC[C@H]12	49.2 µM (inactive)	> 100 µM (inactive)	> 100 µM (inactive)	> 100 µM (inactive)	55.1 µM (inactive)	49.9 µM (inactive)	35.2 µM (inactive)	35 µM (inactive)	> 100 µM (inactive)	35.1 µM (inactive)	> 100 µM (inactive)	> 100 µM (inactive)	> 100 µM (inactive)	> 100 µM (inactive)	> 100 µM (inactive)	> 100 µM (inactive)	> 100 µM (inactive)	50.4 µM (inactive)	31 µM (inactive)	–
Cc1nc(N)c(N2CCN(C#N)CC2)c(O)n1	> 100 µM (inactive)	> 100 µM (inactive)	> 100 µM (inactive)	> 100 µM (inactive)	–	> 100 µM (inactive)	> 100 µM (inactive)	> 100 µM (inactive)	> 100 µM (inactive)	–	> 100 µM (inactive)	> 100 µM (inactive)	> 100 µM (inactive)	> 100 µM (inactive)	> 100 µM (inactive)	> 100 µM (inactive)	> 100 µM (inactive)	> 100 µM (inactive)	> 100 µM (inactive)	> 100 µM (inactive)
COc1ccc2c(c1)/C(=C\c1c(Cl)n(-c3ccccc3)c3ccccc13)C(=O)N2	6.59 µM (inactive)	8.97 µM (inactive)	1.64 µM (inactive)	13.4 µM (inactive)	4.12 µM (inactive)	2.19 µM (inactive)	6.44 µM (inactive)	–	2.23 µM (inactive)	2.45 µM (inactive)	6.73 µM (inactive)	9.31 µM (inactive)	5.77 µM (inactive)	12.2 µM (inactive)	15.5 µM (inactive)	3.91 µM (inactive)	4.89 µM (inactive)	12.4 µM (inactive)	7.23 µM (inactive)	3.85 µM (inactive)
Cn1c(=O)[nH]n(-c2ccc3ccccc3c2)c1=O	> 100 µM (inactive)	> 100 µM (inactive)	> 100 µM (inactive)	> 100 µM (inactive)	> 100 µM (inactive)	> 100 µM (inactive)	> 100 µM (inactive)	> 100 µM (inactive)	–	> 100 µM (inactive)	> 100 µM (inactive)	> 100 µM (inactive)	> 100 µM (inactive)	–	> 100 µM (inactive)	> 100 µM (inactive)	> 100 µM (inactive)	> 100 µM (inactive)	> 100 µM (inactive)	> 100 µM (inactive)
CC(C)(C)C(=O)C(CC(=O)c1ccccc1)C(=O)C(C)(C)C	15.3 µM (inactive)	> 100 µM (inactive)	> 100 µM (inactive)	> 100 µM (inactive)	> 100 µM (inactive)	> 100 µM (inactive)	> 100 µM (inactive)	> 100 µM (inactive)	> 100 µM (inactive)	–	> 100 µM (inactive)	> 100 µM (inactive)	> 100 µM (inactive)	99.1 µM (inactive)	> 100 µM (inactive)	> 100 µM (inactive)	> 100 µM (inactive)	> 100 µM (inactive)	> 100 µM (inactive)	> 100 µM (inactive)
N#CC(C#N)=C1C(=O)NC(N)=C1C#N	–	> 100 µM (inactive)	> 100 µM (inactive)	> 100 µM (inactive)	> 100 µM (inactive)	> 100 µM (inactive)	> 100 µM (inactive)	> 100 µM (inactive)	> 100 µM (inactive)	> 100 µM (inactive)	> 100 µM (inactive)	> 100 µM (inactive)	> 100 µM (inactive)	> 100 µM (inactive)	> 100 µM (inactive)	> 100 µM (inactive)	> 100 µM (inactive)	> 100 µM (inactive)	> 100 µM (inactive)	> 100 µM (inactive)
Oc1ccccc1/C=N/Nc1nc(N/N=C/c2ccccc2O)nc(N/N=C/c2ccccc2O)n1	–	> 100 µM (inactive)	> 100 µM (inactive)	> 100 µM (inactive)	45.4 µM (inactive)	> 100 µM (inactive)	> 100 µM (inactive)	31.6 µM (inactive)	10.5 µM (inactive)	87.1 µM (inactive)	43.6 µM (inactive)	> 100 µM (inactive)	> 100 µM (inactive)	44.6 µM (inactive)	> 100 µM (inactive)	86.1 µM (inactive)	> 100 µM (inactive)	> 100 µM (inactive)	78.2 µM (inactive)	–
O=S(=O)(O)c1ccc2cccc(/N=N\c3c(O)ccc4ccccc34)c2c1	> 100 µM (inactive)	> 100 µM (inactive)	> 100 µM (inactive)	> 100 µM (inactive)	> 100 µM (inactive)	> 100 µM (inactive)	–	> 100 µM (inactive)	> 100 µM (inactive)	> 100 µM (inactive)	> 100 µM (inactive)	–	> 100 µM (inactive)	> 100 µM (inactive)	> 100 µM (inactive)	> 100 µM (inactive)	> 100 µM (inactive)	> 100 µM (inactive)	> 100 µM (inactive)	> 100 µM (inactive)
COc1ccc(C2CCc3c(cnc4nc(N)nc(N)c34)C2)cc1 (configuration not stated)	10.3 µM (inactive)	> 100 µM (inactive)	4.53 µM (inactive)	40.5 µM (inactive)	1.09 µM (active)	0.83 µM (active)	0.968 µM (active)	13.6 µM (inactive)	9.48 µM (inactive)	16.8 µM (inactive)	47.4 µM (inactive)	96.4 µM (inactive)	5.4 µM (inactive)	20.5 µM (inactive)	12.8 µM (inactive)	7.26 µM (inactive)	94.4 µM (inactive)	13.9 µM (inactive)	> 100 µM (inactive)	–
C=C1CC/C=C(/C(=O)O)CC[C@H]2[C@@H]1CC2(C)C	–	> 100 µM (inactive)	> 100 µM (inactive)	> 100 µM (inactive)	> 100 µM (inactive)	> 100 µM (inactive)	> 100 µM (inactive)	> 100 µM (inactive)	> 100 µM (inactive)	> 100 µM (inactive)	> 100 µM (inactive)	> 100 µM (inactive)	–	> 100 µM (inactive)	> 100 µM (inactive)	> 100 µM (inactive)	> 100 µM (inactive)	> 100 µM (inactive)	> 100 µM (inactive)	> 100 µM (inactive)
CC(=O)N1c2ccccc2C2=NN=C(N(C)C)SC21 (configuration not stated)	13.6 µM (inactive)	3.64 µM (inactive)	6.56 µM (inactive)	1.89 µM (inactive)	–	3.37 µM (inactive)	2.1 µM (inactive)	2.3 µM (inactive)	3.09 µM (inactive)	–	2.18 µM (inactive)	3.47 µM (inactive)	2.65 µM (inactive)	3.8 µM (inactive)	9.06 µM (inactive)	2.41 µM (inactive)	2.72 µM (inactive)	4.24 µM (inactive)	2.84 µM (inactive)	2.1 µM (inactive)
CC(=O)Oc1ccn2nc(C)c(Br)c2c1Br	22.1 µM (inactive)	16.7 µM (inactive)	17.9 µM (inactive)	23 µM (inactive)	32.5 µM (inactive)	24.5 µM (inactive)	18.4 µM (inactive)	17.6 µM (inactive)	15.3 µM (inactive)	> 10 µM (inactive)	27.5 µM (inactive)	21.4 µM (inactive)	29.4 µM (inactive)	44.4 µM (inactive)	45 µM (inactive)	30.5 µM (inactive)	20.7 µM (inactive)	–	18.4 µM (inactive)	21.6 µM (inactive)
COc1ccc(N[S+]([O-])c2ccc(-c3ccccc3)cc2)cc1 (configuration not stated)	22.3 µM (inactive)	> 100 µM (inactive)	> 100 µM (inactive)	> 100 µM (inactive)	8.55 µM (inactive)	> 100 µM (inactive)	19.5 µM (inactive)	> 100 µM (inactive)	> 100 µM (inactive)	> 100 µM (inactive)	–	91.4 µM (inactive)	29.5 µM (inactive)	52 µM (inactive)	> 100 µM (inactive)	> 100 µM (inactive)	> 100 µM (inactive)	> 100 µM (inactive)	22.3 µM (inactive)	> 100 µM (inactive)
CCN(CC)CCOc1ccc(N2Cc3cc(OC)c(OC)cc3C2=O)cc1	–	> 100 µM (inactive)	> 100 µM (inactive)	> 100 µM (inactive)	> 100 µM (inactive)	> 100 µM (inactive)	> 100 µM (inactive)	> 100 µM (inactive)	> 100 µM (inactive)	> 100 µM (inactive)	> 100 µM (inactive)	> 100 µM (inactive)	> 100 µM (inactive)	> 100 µM (inactive)	> 100 µM (inactive)	> 100 µM (inactive)	> 100 µM (inactive)	> 100 µM (inactive)	> 100 µM (inactive)	> 100 µM (inactive)
CC1=CC(=O)N(n2c(Cc3ccc(Cl)cc3)n[nH]c2=O)C1=O	–	> 100 µM (inactive)	38.2 µM (inactive)	46.3 µM (inactive)	83.4 µM (inactive)	23.3 µM (inactive)	27.6 µM (inactive)	17.4 µM (inactive)	20.8 µM (inactive)	8.24 µM (inactive)	> 100 µM (inactive)	–	55.5 µM (inactive)	–	98.9 µM (inactive)	28.4 µM (inactive)	> 100 µM (inactive)	> 100 µM (inactive)	26.4 µM (inactive)	7.91 µM (inactive)

Reference: ChEMBL document CHEMBL1201862, “PubChem BioAssay data set” (2004)
